From US20240350493A1 (Kadmon Corporation, LLC, priority 2022, published 2024)
Counter-ions that a name gives are not always drawn.

What was measured:
patients with cGVHD = conditions: cited from earlier work
[1] = solubility of belumosudil mesylate in solvents; type: physicochemical

Row | SMILES | discontinuation rate because of treatment-emergent adverse events (TEAEs) (patients with cGVHD) | solubility in DMF ([1]; DMF) | solubility in DMSO ([1]; DMSO) | solubility in methanol ([1]; methanol) | solubility in water ([1]; water)
1 | C=CC(=O)N1CCC[C@@H](n2nc(-c3ccc(Oc4ccccc4)cc3)c3c(N)ncnc32)C1 [ibrutinib] | 43% | – | – | – | –
2 | CC(C)NC(=O)COc1cccc(-c2nc(Nc3ccc4[nH]ncc4c3)c3ccccc3n2)c1 [Belumosudil mesylate, 2-{3-[4-(1H-indazol-5-ylamino)-2-quinazolinyl]phenoxy}-N-(propan-2-yl) acetamide methanesulfonate (1:1)] | – | slightly soluble | soluble | slightly soluble | practically insoluble
